Assay results as given in the supplement of paper PMC10307832.

Columns and labels:
Assay in all cases: relative viability (nuclei count vs DMSO), 5 days (fraction); higher = more cells survive
Dovitinib + Bortezomib = compound: CN1CCN(c2ccc3nc(-c4c(N)c5c(F)cccc5[nH]c4=O)[nH]c3c2)CC1 [Dovitinib] + CC(C)C[C@H](NC(=O)[C@H](Cc1ccccc1)NC(=O)c1cnccn1)B(O)O [Bortezomib] (partner 0.002 µM)
Summary of the method: (§1)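 A single step with final 0.05% Triton X-100, 1% formaldehyde and 1 ug/ml Hoechst fixed the cells and stained nuclei 5 days after treatment. Lung cancer cell lines in 1536-well plates had been treated by pin tool the day after seeding with one drug alone or a fixed anchor-drug dose plus five library-drug doses (not always all listed) in √10 steps, and nuclei were counted on 4× images. Relative viability is the ratio of nuclei in treated wells to nuclei in vehicle wells, taken as the median of duplicate plates.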

Dovitinib + Pemetrexed = compound: CN1CCN(c2ccc3nc(-c4c(N)c5c(F)cccc5[nH]c4=O)[nH]c3c2)CC1 [Dovitinib] + Nc1nc2[nH]cc(CCc3ccc(C(=O)N[C@@H](CCC(=O)O)C(=O)O)cc3)c2c(=O)[nH]1 [Pemetrexed] (partner 0.2 µM)
Summary of the method: as §1

Dovitinib + Olaparib = compound: CN1CCN(c2ccc3nc(-c4c(N)c5c(F)cccc5[nH]c4=O)[nH]c3c2)CC1 [Dovitinib] + O=C(c1cc(Cc2n[nH]c(=O)c3ccccc23)ccc1F)N1CCN(C(=O)C2CC2)CC1 [Olaparib] (partner 8 µM)
Summary of the method: as §1

Dovitinib + Alpelisib = compound: CN1CCN(c2ccc3nc(-c4c(N)c5c(F)cccc5[nH]c4=O)[nH]c3c2)CC1 [Dovitinib] + Cc1nc(NC(=O)N2CCC[C@H]2C(N)=O)sc1-c1ccnc(C(C)(C)C(F)(F)F)c1 [Alpelisib] (partner 2 µM)
Summary of the method: as §1

| Cell Line | relative viability (Dovitinib + Bortezomib; first compound 0.02 µM) | relative viability (Dovitinib + Bortezomib; first compound 0.06325 µM) | relative viability (Dovitinib + Bortezomib; first compound 0.2 µM) | relative viability (Dovitinib + Bortezomib; first compound 0.6325 µM) | relative viability (Dovitinib + Bortezomib; first compound 2 µM) | relative viability (Dovitinib + Pemetrexed; first compound 0.02 µM) | relative viability (Dovitinib + Pemetrexed; first compound 0.06325 µM) | relative viability (Dovitinib + Pemetrexed; first compound 0.2 µM) | relative viability (Dovitinib + Pemetrexed; first compound 0.6325 µM) | relative viability (Dovitinib + Pemetrexed; first compound 2 µM) | relative viability (Dovitinib + Olaparib; first compound 0.02 µM) | relative viability (Dovitinib + Olaparib; first compound 0.06325 µM) | relative viability (Dovitinib + Olaparib; first compound 0.2 µM) | relative viability (Dovitinib + Olaparib; first compound 0.6325 µM) | relative viability (Dovitinib + Olaparib; first compound 2 µM) | relative viability (Dovitinib + Alpelisib; first compound 0.02 µM) | relative viability (Dovitinib + Alpelisib; first compound 0.06325 µM) | relative viability (Dovitinib + Alpelisib; first compound 0.2 µM) | relative viability (Dovitinib + Alpelisib; first compound 0.6325 µM) | relative viability (Dovitinib + Alpelisib; first compound 2 µM) |
| --- | --- | --- | --- | --- | --- | --- | --- | --- | --- | --- | --- | --- | --- | --- | --- | --- | --- | --- | --- | --- |
| NCI-H2009 | 0.816 | 0.926 | 0.991 | 0.974 | 1.08 | 0.967 | 1.06 | 1.03 | 0.979 | 1.03 | 0.651 | 0.668 | 0.657 | 0.671 | 0.832 | 1.07 | 1.16 | 1.06 | 1.14 | 1.14 |
| NCI-H2023 | 0.994 | 0.963 | 1.24 | 0.995 | 0.886 | 0.205 | 0.232 | 0.238 | 0.216 | 0.19 | 0.454 | 0.487 | 0.541 | 0.432 | 0.482 | 0.558 | 0.574 | 0.606 | 0.57 | 0.523 |
| NCI-H2085 | 1.05 | 1.1 | 1.03 | 1.21 | 1.06 | 0.941 | 0.991 | 1.03 | 0.871 | 0.958 | 0.731 | 0.828 | 0.723 | 0.762 | 0.758 | 1.05 | 0.987 | 0.88 | 0.936 | 1.03 |
| NCI-H2087 | 0.756 | 1.07 | 0.805 | 0.899 | 0.86 | 0.755 | 0.668 | 0.661 | 0.716 | 0.616 | 0.631 | 0.519 | 0.604 | 0.571 | 0.689 | 1.35 | 1.31 | 1.02 | 0.989 | 1.01 |
| NCI-H2126 | 1.11 | 1.09 | 1.2 | 1.08 | 1.07 | 0.734 | 0.653 | 0.676 | 0.705 | 0.711 | 0.871 | 0.934 | 0.92 | 0.936 | 0.878 | 0.761 | 0.72 | 0.716 | 0.769 | 0.695 |
| NCI-H2228 | 0.845 | 0.952 | 0.827 | 0.897 | 0.875 | 0.258 | 0.344 | 0.324 | 0.33 | 0.321 | 0.689 | 0.592 | 0.866 | 0.768 | 0.573 | 0.997 | 0.674 | 0.61 | 0.837 | 0.565 |
| NCI-H2347 | 1.18 | 0.935 | 0.907 | 1.43 | 1.09 | 0.479 | 0.53 | 0.415 | 0.467 | 0.475 | 0.568 | 0.59 | 0.621 | 0.641 | 0.606 | 1.11 | 0.988 | 1.08 | 1.09 | 1.09 |
| NCI-H2405 | 0.871 | 0.972 | 1 | 1.08 | 0.969 | 1.05 | 1.02 | 1.25 | 1.08 | 1.11 | 0.858 | 0.849 | 0.944 | 0.815 | 0.903 | 0.819 | 0.744 | 0.791 | 0.77 | 0.965 |
| NCI-H3122 | 0.984 | 0.977 | 1.03 | 1.05 | 1.01 | 0.194 | 0.207 | 0.199 | 0.186 | 0.189 | 0.623 | 0.619 | 0.663 | 0.56 | 0.536 | 0.703 | 0.681 | 0.8 | 0.82 | 0.839 |
| PC-3 [JPC-3] | 0.849 | 0.803 | 0.899 | 0.872 | 0.88 | 1.12 | 1.12 | 1.16 | 1.3 | 1.21 | 1.16 | 1.16 | 1.14 | 1.13 | 1.15 | 1.03 | 1.01 | 1.02 | 1.09 | 0.909 |
| PC-14 | 0.796 | 0.906 | 0.834 | 0.808 | 0.819 | 0.128 | 0.134 | 0.121 | 0.141 | 0.132 | 0.291 | 0.276 | 0.27 | 0.217 | 0.247 | 0.805 | 1.03 | 0.966 | 0.946 | 0.883 |
| RERF-LC-KJ | 1.11 | 1.14 | 1.14 | 1.06 | 0.997 | 0.47 | 0.49 | 0.483 | 0.475 | 0.47 | 0.932 | 0.892 | 0.939 | 0.982 | 0.896 | 0.794 | 0.825 | 0.852 | 0.822 | 0.87 |
| SK-LU-1 | 0.977 | 0.993 | 1.06 | 1.28 | 1.26 | 0.985 | 0.92 | 0.913 | 1 | 1.02 | 0.418 | 0.487 | 0.446 | 0.501 | 0.452 | 0.928 | 0.946 | 0.951 | 0.805 | 1.16 |
| SW 1573 | 0.985 | 1.06 | 0.997 | 1.08 | 1.03 | 0.853 | 0.859 | 0.858 | 0.868 | 0.861 | 0.512 | 0.525 | 0.593 | 0.446 | 0.507 | 0.785 | 0.798 | 0.703 | 0.657 | 0.753 |
| UMC-11 | 0.77 | 0.669 | 0.881 | 0.81 | 0.668 | 0.808 | 0.787 | 0.838 | 0.876 | 0.822 | 0.334 | 0.352 | 0.383 | 0.387 | 0.435 | 0.958 | 0.941 | 0.892 | 0.82 | 0.961 |
